# Experimental data taken from patent US10793563B2, “GCN2 inhibitors and uses thereof” (Merck Patent GmbH, priority 2018, dated 2020).
# Key:
# [1] = tested on: primary human pan T-cells; test: Human IL-2 Assay for GCN2 Inhibition (IL-2 secretion from T cells in low amino acid condition); assay type: cell-based; conditions: Homo sapiens, T-cell, 96 h, IL-2 secretion from human T cells stimulated with anti-CD3/CD28 in low amino acid condition, ELISA, read-out: IL2/T-cell EC50
# Excerpt: Tumor microenvironment is profoundly immuno-suppressive. This may be attributed to the depletion of amino acids (like arginine and tryptophan) which triggers the activation of GCN2 in immune cells, including T cell and myeloid cells. In T cells, activation of GCN2 leads to reduce effector functions of CD8 T cells and induction and/or maintenance of immuno-suppressive T-regs. Inhibition of that immuno-suppressive response by GCN2 inhibitors enables an anti-cancer immune response by activating effector T-cells. Herein we describe an in-vitro system we established using human T-cells stimulated in low amino acid condition in order to engage the GCN2 biology. The method described involves the modulation of IL-2 levels secreted by human T cells in responses to the GCN2 inhibitors disclosed herein.
# Amino acid-free RPMI was reconstituted with all but one of the amino acids found in standard RMPI (e.g. Arginine, Tryptophan), 10% charcoal-stripped fetal bovine serum, 100 Units/mL penicillin and 0.1 mg/mL streptomycin. Primary human pan T-cells were isolated using Pan T Cell Isolation Kit, human (MACS Miltenyi biotech Cat # Order no. 130-096-535) from apheresis cones and 5×104 pan T-cells per well. The purified T cells are seeded in Nunc™ 96-Well Polystyrene Round Bottom Microwell Plates (the cells are rested in No TRP media in a 15 ml falcon tube in the incubator for 30-45 minutes while titrations for tryptophan and the GCN2 inhibitor compound are made) A plate matrix was developed to titrate both a GCN2 inhibitor and the amino acid of interest ranging from “No Amino Acid” condition, up to the concentration found in the regular RPMI media (20 μM for TRP and 950 μM for Arginine). The cells were incubated for 30 min at 37° C. with the GCN2 inhibitor and then stimulated with 5×104 anti-CD3/CD28 Dynabeads® per well. After 96 hours of incubation the IL-2 level in the supernatant were measured using ELISA (R&D systems Cat # DY202 (Human IL-2 DuoSet ELISA). Data were plotted in GraphPad Prism software and EC50 is calculated.
# [2] = target: intracellular GCN2 (phosphorylation of the GCN2 substrate eIF2α) (Homo sapiens (Human), UniProt Q9P2K8); test: GCN2 Cellular Inhibition Assay (AlphaScreen SureFire P-eIF2α Ser51, borrelidin-treated U2OS cells); assay type: cell-based; conditions: 10 μM borrelidin, 1 h, phosphorylated eIF2α Ser51, read-out: GCN2 Biomarker (IC50)
# Method in brief: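 Phospho-eIF2α (Ser51) measured by AlphaScreen SureFire in lysates of U2OS cells stimulated 1 h at 37 °C with 10 μM borrelidin alongside compound, 4-fold dilutions from 40 μM. Inhibition expressed as percent relative to borrelidin-alone controls.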
# [3] = target: GCN2 kinase (Homo sapiens (Human), UniProt Q9P2K8); test: GCN2 Enzyme Inhibition Assay (Transcreener ADP2 fluorescence polarization); assay type: biochemical; conditions: 280 μM ATP, 200 μM (RS)7 peptide, 4 nM GCN2, 25° C.
# Method in brief: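 At 25 °C, GCN2 kinase (typical final concentration 4 nM) and (RS)7 peptide in Tris-HCl pH 7.5 buffer with MgCl2, NaCl and DTT were preincubated with compound for 10 min, then ATP was added for a 1 h reaction. ADP was read by FP with antibody/Alexa633 tracer. Non-linear tight-binding analysis gave IC50 and apparent Ki.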
# GCN2 kinase, sequence (Q9P2K8 whole entry): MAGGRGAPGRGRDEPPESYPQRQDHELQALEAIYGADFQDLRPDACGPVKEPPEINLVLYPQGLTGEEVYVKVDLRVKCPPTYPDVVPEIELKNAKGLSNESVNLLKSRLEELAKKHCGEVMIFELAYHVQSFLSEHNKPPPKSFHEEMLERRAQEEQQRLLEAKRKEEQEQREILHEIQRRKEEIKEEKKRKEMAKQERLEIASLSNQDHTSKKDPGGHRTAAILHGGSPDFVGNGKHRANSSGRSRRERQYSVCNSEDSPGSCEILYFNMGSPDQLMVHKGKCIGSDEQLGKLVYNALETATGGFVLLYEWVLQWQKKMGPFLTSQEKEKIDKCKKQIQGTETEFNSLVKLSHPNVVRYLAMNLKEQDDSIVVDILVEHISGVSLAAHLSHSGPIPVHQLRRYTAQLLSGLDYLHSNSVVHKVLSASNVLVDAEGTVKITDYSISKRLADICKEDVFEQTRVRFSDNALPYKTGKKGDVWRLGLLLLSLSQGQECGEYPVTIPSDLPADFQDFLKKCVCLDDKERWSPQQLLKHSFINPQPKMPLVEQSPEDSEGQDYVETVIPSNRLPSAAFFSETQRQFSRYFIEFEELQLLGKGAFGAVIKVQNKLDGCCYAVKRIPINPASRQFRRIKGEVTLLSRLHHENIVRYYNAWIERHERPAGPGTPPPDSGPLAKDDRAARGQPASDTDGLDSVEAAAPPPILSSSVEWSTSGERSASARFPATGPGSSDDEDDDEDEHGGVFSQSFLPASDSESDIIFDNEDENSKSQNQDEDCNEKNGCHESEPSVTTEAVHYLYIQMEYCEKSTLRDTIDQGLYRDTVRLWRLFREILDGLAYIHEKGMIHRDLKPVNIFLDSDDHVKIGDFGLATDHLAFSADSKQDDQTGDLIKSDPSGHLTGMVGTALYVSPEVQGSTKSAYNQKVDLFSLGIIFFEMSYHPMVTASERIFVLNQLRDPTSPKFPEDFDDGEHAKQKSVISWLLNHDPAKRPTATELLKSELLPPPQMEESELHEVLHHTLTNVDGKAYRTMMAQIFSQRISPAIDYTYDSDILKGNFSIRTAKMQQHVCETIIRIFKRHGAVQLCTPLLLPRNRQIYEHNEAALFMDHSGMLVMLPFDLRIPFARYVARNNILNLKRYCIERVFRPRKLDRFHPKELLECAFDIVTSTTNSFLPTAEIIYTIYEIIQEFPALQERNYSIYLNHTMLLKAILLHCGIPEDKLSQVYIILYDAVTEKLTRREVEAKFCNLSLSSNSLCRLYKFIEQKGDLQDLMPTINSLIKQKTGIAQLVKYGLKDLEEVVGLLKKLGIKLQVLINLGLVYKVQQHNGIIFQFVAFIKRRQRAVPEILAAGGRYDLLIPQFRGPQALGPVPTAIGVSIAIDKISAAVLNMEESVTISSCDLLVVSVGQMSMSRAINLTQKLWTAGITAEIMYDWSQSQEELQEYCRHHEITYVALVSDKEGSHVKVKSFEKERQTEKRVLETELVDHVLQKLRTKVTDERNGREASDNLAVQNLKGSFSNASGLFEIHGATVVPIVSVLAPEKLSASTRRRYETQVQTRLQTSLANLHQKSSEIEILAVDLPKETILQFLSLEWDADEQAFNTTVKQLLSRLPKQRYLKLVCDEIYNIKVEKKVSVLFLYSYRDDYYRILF
# intracellular GCN2 (phosphorylation of the GCN2 substrate eIF2α), sequence (Q9P2K8 whole entry): as above
Structure (SMILES),EC50 [1] [nM],IC50 [2] [nM],IC50 [3] [nM],Ki ([3]; Ki(app)) [nM]
"C[C@@H]1[C@H](C(N)=O)N(C2CC2)CCN1c1ccnc(-c2cnc3ccc(Cl)cn23)n1 [I-547, (2R,3R)-4-(2-(6-chloroimidazo[1,2-a]pyridin-3-yl)pyrimidin-4-yl)-1-cyclopropyl-3-methylpiperazine-2-carboxamide]",100 to 500,,,
"C[C@H]1CN(c2ccnc(-c3cnc4ccc(Cl)cn34)n2)[C@@H](C)[C@@H](c2cn[nH]c2)N1 [I-563, 6-chloro-3-(4-((2S,3R,5S)-2,5-dimethyl-3-(1H-pyrazol-4-yl)piperazin-1-yl)pyrimidin-2-yl)imidazo[1,2-a]pyridine]",100 to 500,,,
"C[C@@H]1C[C@@H](N=S(C)(C)=O)CN(c2ccnc(-c3cnc4ccc(C(F)F)cn34)n2)C1 [I-569, (((3R,5R)-1-(2-(6-(difluoromethyl)imidazo[1,2-a]pyridin-3-yl)pyrimidin-4-yl)-5-methylpiperidin-3-yl)imino)dimethyl-λ6-sulfanone]",100 to 500,,,
"C[C@H]1CN(c2ccnc(-c3cnc4cc(F)c(Cl)cn34)n2)C[C@@H](c2cn[nH]c2)O1 [I-568, (2S,6R)-4-(2-(6-chloro-7-fluoroimidazo[1,2-a]pyridin-3-yl)pyrimidin-4-yl)-2-methyl-6-(1H-pyrazol-4-yl)morpholine]",100 to 500,,,
"C[C@@H]1C[C@@H](c2cn[nH]c2)CN(c2ccnc(-c3cnc4ccc(Cl)cn34)n2)C1 [I-559, 6-chloro-3-(4-((3R,5S)-3-methyl-5-(1H-pyrazol-4-yl)piperidin-1-yl)pyrimidin-2-yl)imidazo[1,2-a]pyridine]",< 100,,,
"Cc1[nH]ncc1[C@H]1CN(c2ccnc(-c3cnc4ccc(Cl)cn34)n2)C[C@@H](C)O1 [I-561, (2R,6S)-4-(2-(6-chloroimidazo[1,2-a]pyridin-3-yl)pyrimidin-4-yl)-2-methyl-6-(5-methyl-1H-pyrazol-4-yl)morpholine]",100 to 500,,,
"C[C@H]1CN(c2ccnc(-c3cnc4ccc(C(F)(F)F)cn34)n2)C[C@@H](C(N)=O)O1 [I-562, (2S,6S)-6-methyl-4-(2-(6-(trifluoromethyl)imidazo[1,2-a]pyridin-3-yl)pyrimidin-4-yl)morpholine-2-carboxamide]",100 to 500,,,
"C[C@@H]1[C@H](c2cn[nH]c2)N(C2COC2)CCN1c1ccnc(-c2cnc3ccc(C(F)(F)F)cn23)n1 [I-565, 3-(4-((2R,3 S)-2-methyl-4-(oxetan-3-yl)-3-(1H-pyrazol-4-yl)piperazin-1-yl)pyrimidin-2-yl)-6-(trifluoromethyl)imidazo[1,2-a]pyridine]",< 100,,,
"C[C@@H]1C[C@@H](c2cn[nH]c2)CN(c2ccnc(-c3cnc4ccc(C(F)(F)F)cn34)n2)C1 [I-567, 3-(4-((3R,5S)-3-methyl-5-(1H-pyrazol-4-yl)piperidin-1-yl)pyrimidin-2-yl)-6-(trifluoromethyl)imidazo[1,2-a]pyridine]",< 100,,,
"NC(=O)[C@H]1CCCN(c2ccnc(-c3cnc4cc(F)c(Cl)cn34)n2)C1 [I-558, (S)-1-(2-(6-chloro-7-fluoroimidazo[1,2-a]pyridin-3-yl)pyrimidin-4-yl)piperidine-3-carboxamide]",100 to 500,,,
"C[C@@H]1CN(c2ccnc(-c3cnc4ccc(C(F)(F)F)cn34)n2)C[C@H](c2cn[nH]c2)O1 [I-564, (2R,6S)-2-methyl-6-(1H-pyrazol-4-yl)-4-(2-(6-(trifluoromethyl)imidazo[1,2-a]pyridin-3-yl)pyrimidin-4-yl)morpholine]",< 100,,,
"NC(=O)C1CN(c2ccnc(-c3cnc4ccc(C(F)(F)F)cn34)n2)CCN1C1COC1 (stereo not drawn) [I-263, 1-(oxetan-3-yl)-4-(2-(6-(trifluoromethyl)imidazo[1,2-a]pyridin-3-yl)pyrimidin-4-yl)piperazine-2-carboxamide]",,500 to 5000,10 to 100,
"C[C@H]1C[C@H](c2cn[nH]c2)CN(c2nccc(-c3cnc4ccc(C5CC5)cn34)n2)C1 [I-235, 6-cyclopropyl-3-(2-((3S,5R)-3-methyl-5-(1H-pyrazol-4-yl)piperidin-1-yl)pyrimidin-4-yl)imidazo[1,2-a]pyridine]",,< 500,10 to 100,
"FC(F)(F)c1ccc2ncc(-c3nccc(N4CCN(Cc5ncc[nH]5)C(c5cn[nH]c5)C4)n3)n2c1 (stereo not drawn) [I-371, 3-(4-(4-((1H-imidazol-2-yl)methyl)-3-(1H-pyrazol-4-yl)piperazin-1-yl)pyrimidin-2-yl)-6-(trifluoromethyl)imidazo[1,2-a]pyridine]",,500 to 5000,< 10,
"FC(F)(F)CCN1CCN(c2ccnc(-c3cnc4ccc(C(F)(F)F)cn34)n2)CC1c1cn[nH]c1 (stereo not drawn) [I-449, 3-(4-(3-(1H-pyrazol-4-yl)-4-(3,3,3-trifluoropropyl)piperazin-1-yl)pyrimidin-2-yl)-6-(trifluoromethyl)imidazo[1,2-a]pyridine]",,< 500,< 10,
"Cc1[nH]ncc1C1CC(F)CN(c2ccnc(-c3cnc4cc(F)c(Cl)cn34)n2)C1 (stereo not drawn) [I-426, 6-chloro-7-fluoro-3-(4-(3-fluoro-5-(5-methyl-1H-pyrazol-4-yl)piperidin-1-yl)pyrimidin-2-yl)imidazo[1,2-a]pyridine]",,500 to 5000,10 to 100,
"C[C@@H]1C[C@H](N=S(C)(C)=O)CN(c2ccnc(-c3cnc4ccc(Oc5ccccc5)cn34)n2)C1 [I-325, dimethyl({[(3 S,5R)-5-methyl-1-(2-{6-phenoxyimidazo[1,2-a]pyridin-3-yl}pyrimidin-4-yl)piperidin-3-yl]imino})-λ6-sulfanone]",,500 to 5000,100 to 1000,
"FC(F)(F)c1ccc2ncc(-c3ccnc(N4CCN(C[C@@H]5CCCOC5)[C@H](c5cn[nH]c5)C4)n3)n2c1 [I-544, 3-(2-((R)-3-(1H-pyrazol-4-yl)-4-(((S)-tetrahydro-2H-pyran-3-yl)methyl)piperazin-1-yl)pyrimidin-4-yl)-6-(trifluoromethyl)imidazo[1,2-a]pyridine]",,< 500,< 10,
"C[C@@H]1C[C@H](N=S(C)(C)=O)CN(c2ccnc(-c3cnc4ccc(C#N)cn34)n2)C1 [I-262, 3-(4-((3S,5R)-3-((dimethyl(oxo)-λ6-sulfaneylidene)amino)-5-methylpiperidin-1-yl)pyrimidin-2-yl)imidazo[1,2-a]pyridine-6-carbonitrile]",,> 5000,10 to 100,
"FC(F)(F)c1ccc2ncc(-c3nccc(N4CCN[C@H](c5cn[nH]c5)C4)n3)n2c1 [I-532, (R)-3-(4-(3-(1H-pyrazol-4-yl)piperazin-1-yl)pyrimidin-2-yl)-6-(trifluoromethyl)imidazo[1,2-a]pyridine]",,500 to 5000,10 to 100,
"OC1CC(N2CCN(c3ccnc(-c4cnc5ccc(C(F)(F)F)cn45)n3)CC2c2cn[nH]c2)C1 (stereo not drawn) [I-383, 3-(2-(1H-pyrazol-4-yl)-4-(2-(6-(trifluoromethyl)imidazo[1,2-a]pyridin-3-yl)pyrimidin-4-yl)piperazin-1-yl)cyclobutan-1-ol]",,500 to 5000,< 10,
"c1ccc(Oc2ccc3ncc(-c4nccc(N5CCCC(c6cn[nH]c6)C5)n4)n3c2)cc1 (stereo not drawn) [I-329, 2-{6-phenoxyimidazo[1,2-a]pyridin-3-yl}-4-[3-(1H-pyrazol-4-yl)piperidin-1-yl]pyrimidine]",,< 500,10 to 100,
"CS(=N)(=O)C[C@H]1CCCN(c2ccnc(-c3cnc4ccc(Cl)cn34)n2)C1 (stereo in doubt) [I-21, 6-Chloro-3-(4-(3-((methylsulfonimidoyl)methyl)piperidin-1-yl)pyrimidin-2-yl)imidazo[1,2-a]pyridine]",,500 to 5000,,10 to 100
"C[C@@H]1C[C@H](N=S(C)(C)=O)CN(c2nccc(-c3cnc4cc(Cl)c(Cl)cn34)n2)C1 [I-244, (((3 S,5R)-1-(4-(6,7-dichloroimidazo[1,2-a]pyridin-3-yl)pyrimidin-2-yl)-5-methylpiperidin-3-yl)imino)dimethyl-λ6-sulfanone]",,500 to 5000,10 to 100,
"C[C@H]1C[C@@H](c2cn[nH]c2)CN(c2nccc(-c3cnc4ccc(Cl)cn34)n2)C1 [I-199, 6-chloro-3-(2-((3S,5S)-3-methyl-5-(1H-pyrazol-4-yl)piperidin-1-yl)pyrimidin-4-yl)imidazo[1,2-a]pyridine]",,< 500,< 10,
